Reference: US10941157B2, “Pesticidal compositions and uses thereof” (Gilead Apollo, LLC, priority 2015, dated 2021)
Converted amounts (≈) assume the structure as drawn. Like-named read-outs stand apart in the source and are kept apart here.

Tests used:
Assay type in all cases: cell-based
Diplodia maydis (Dm) = experiment: In vitro pathogen growth inhibition assay, Dm; conditions: Stenocarpella maydis, 48 h
Procedure: (§1) A growth inhibition assay was conducted to determine the ability of compounds to control the growth of fungal pathogens, such as Botrtyis cinerea (Bc), Collectotrichum graminicola (Cg), Diplodia maydis (Dm), Fusarium moniliforme (Fm), Fusarium virguliforme (Fv), Phytophthora capsici (Pc), Rhizoctonia solani (Rs), and Septoria tritici (St). The compounds listed in Table 1 were each dissolved in DMSO at 2.5 mg/ml to produce compound stock solutions (“stocks”). […] Negative controls on each plate included 2% DMSO, water, and a blank (media+2% DMSO). Fungal spores were isolated from previously sub-cultured plates of Botrtyis cinerea (Bc), Collectotrichum graminicola (Cg), Diplodia maydis (Dm), Fusarium moniliforme (Fm), Fusarium virguliforme (Fv), Phytophthora capsici (Pc), and Septoria tritici (St). The isolated spores were diluted to individual concentrations with a 17% V8 liquid media. For Rhizoctonia solani (Rs), 1.5 mm mycelial plugs were used in place of spores and ¼ Potato Dextrose Broth (PDB) was used for dilution. The spore concentrations and plug sizes were based on growth curves generated at 48 hours for each pathogen. In a second 96-well plate, the spores or mycelial plugs, media, diluted compound solutions, and controls were combined. Once the compound was added, a true final concentration of compound in each well was measured by an OD600 reading, which adjusted for any compound precipitation that might have occurred in the well. Plate readings were repeated at both 24 and 48 hours. The blank negative control was used as a background subtraction. Additional visual ratings were performed at both 24 and 48 hours for checking on precipitation and confirming efficacy. […] Both tables list the concentration of each compound that was sufficient to ≥90% inhibition of growth for each of the fungal pathogens listed above. In addition, some of compounds were tested in a yeast growth inhibition assay for Saccharomyces cerevisiae (Sc). Table 2 lists the concentration of the tested compound that was sufficient to ≥75% inhibition of Saccharomyces cerevisiae (Sc).

[1] = system: Fusarium virguliforme (Fv); experiment: In vitro pathogen growth inhibition assay, Fv
Procedure: as §1

Rhizoctonia solani (Rs) = experiment: In vitro pathogen growth inhibition assay, Rs (mycelial plugs); conditions: for IC90: Rhizoctonia solani, 48 h
Procedure: as §1

Botrtyis cinerea (Bc) = experiment: In vitro pathogen growth inhibition assay, Bc; conditions: 48 h
Procedure: as §1

[2] = system: Phytophthora capsici (Pc); experiment: In vitro pathogen growth inhibition assay, Pc; conditions: 48 h
Procedure: as §1

Septoria tritici (St) = experiment: In vitro pathogen growth inhibition assay, St; conditions: for IC90: Zymoseptoria tritici, 48 h
Procedure: as §1

[3] = system: Collectotrichum graminicola (Cg); experiment: In vitro pathogen growth inhibition assay, Cg; conditions: 48 h
Procedure: as §1

[4] = system: Fusarium moniliforme (Fm); experiment: In vitro pathogen growth inhibition assay, Fm; conditions: Fusarium verticillioides
Procedure: as §1

[5] = ≥90% growth inhibition, 48 hours, vs 2% DMSO control, read-out: Compound Concentration (ppm) sufficient for ≥90% inhibition of Dm
[6] = ≥90% growth inhibition, 48 hours, vs 2% DMSO control, read-out: Compound Concentration (ppm) sufficient for ≥90% inhibition of Fv
[7] = ≥90% growth inhibition, mycelial plugs, 48 hours, vs 2% DMSO control, read-out: Compound Concentration (ppm) sufficient for ≥90% inhibition of Rs
[8] = ≥90% growth inhibition, 48 hours, vs 2% DMSO control, read-out: Compound Concentration (ppm) sufficient for ≥90% inhibition of Bc
[9] = ≥90% growth inhibition, 48 hours, vs 2% DMSO control, read-out: Compound Concentration (ppm) sufficient for ≥90% inhibition of Pc
[10] = ≥90% growth inhibition, 48 hours, vs 2% DMSO control, read-out: Compound Concentration (ppm) sufficient for ≥90% inhibition of St
[11] = ≥90% growth inhibition, 48 hours, vs 2% DMSO control, read-out: Compound Concentration (ppm) sufficient for ≥90% inhibition of Cg
[12] = ≥90% growth inhibition, 48 hours, vs 2% DMSO control, read-out: Compound Concentration (ppm) sufficient for ≥90% inhibition of Fm
[13] = ≥90% growth inhibition, mycelial plugs, 48 hours, vs 2% DMSO control
[14] = ≥90% growth inhibition, 48 hours, vs 2% DMSO control

Row | Compound | IC90 (Diplodia maydis (Dm); [5]) | IC90 [1, 6] | IC90 (Rhizoctonia solani (Rs); [7]) | IC90 (Botrtyis cinerea (Bc); [8]) | IC90 [2, 9] | IC90 (Septoria tritici (St); [10]) | IC90 [3, 11] | IC90 [4, 12] | also measured
1 | CCOC(=O)c1ccc(F)cc1[C@H](Cn1c(=O)n(C(C)(C)C(=O)NC(C)C)c(=O)c2c(C)c(-n3nccn3)sc21)OCCC#N [Compound I-335] | 50 µg/mL (≈ 78.2 µM) | 2 µg/mL (≈ 3.13 µM) | 10 µg/mL (≈ 15.6 µM) | 10 µg/mL (≈ 15.6 µM) | > 50 µg/mL | > 50 µg/mL | 50 µg/mL (≈ 78.2 µM) | 2 µg/mL (≈ 3.13 µM) | 
2 | COc1ccccc1[C@H](Cn1c(=O)n([C@H](C)C(=O)N(C)C(C)C)c(=O)c2c(C)c(-n3nccn3)sc21)OCCC#N [Compound I-238] | 10 µg/mL (≈ 17.3 µM) | 10 µg/mL (≈ 17.3 µM) | 10 µg/mL (≈ 17.3 µM) | 2 µg/mL (≈ 3.45 µM) | > 50 µg/mL | > 50 µg/mL | 10 µg/mL (≈ 17.3 µM) | 2 µg/mL (≈ 3.45 µM) | 
3 | Cc1c(-n2nccn2)sc2c1c(=O)n(C(C)(C)C(=O)NC(C)C)c(=O)n2CCc1cc(F)ccc1OC(C)C [Compound I-338] | 2 µg/mL (≈ 3.59 µM) | 0.08 µg/mL (≈ 0.144 µM) | 10 µg/mL (≈ 18 µM) | 2 µg/mL (≈ 3.59 µM) | > 50 µg/mL | > 50 µg/mL | 10 µg/mL (≈ 18 µM) | 0.08 µg/mL (≈ 0.144 µM) | 
4 | CCNC(=O)[C@H](C)n1c(=O)c2c(C)c(-n3cccn3)sc2n(C[C@H](OCCC#N)c2cc(F)ccc2OC)c1=O [Compound I-306] |  |  |  |  |  |  |  |  | IC90 (Diplodia maydis (Dm); concentration sufficient to ≥90% inhibition of growth, 48 hours vs 2% DMSO control, read-out: Compound Concentration (ppm) for ≥90% inhibition, Dm): > 50 µg/mL; IC90 ([1]; concentration sufficient to ≥90% inhibition of growth, 48 hours vs 2% DMSO control, read-out: Compound Concentration (ppm) for ≥90% inhibition, Fv): > 50 µg/mL; IC90 (Rhizoctonia solani (Rs); concentration sufficient to ≥90% inhibition of growth, 48 hours vs 2% DMSO control, read-out: Compound Concentration (ppm) for ≥90% inhibition, Rs): > 50 µg/mL; IC90 (Botrtyis cinerea (Bc); concentration sufficient to ≥90% inhibition of growth, 48 hours vs 2% DMSO control, read-out: Compound Concentration (ppm) for ≥90% inhibition, Bc): 50 µg/mL (≈ 87.9 µM); IC90 ([2]; concentration sufficient to ≥90% inhibition of growth, 48 hours vs 2% DMSO control, read-out: Compound Concentration (ppm) for ≥90% inhibition, Pc): > 50 µg/mL; IC90 (Septoria tritici (St); concentration sufficient to ≥90% inhibition of growth, 48 hours vs 2% DMSO control, read-out: Compound Concentration (ppm) for ≥90% inhibition, St): > 50 µg/mL; IC90 ([3]; concentration sufficient to ≥90% inhibition of growth, 48 hours vs 2% DMSO control, read-out: Compound Concentration (ppm) for ≥90% inhibition, Cg): > 50 µg/mL; IC90 ([4]; concentration sufficient to ≥90% inhibition of growth, 48 hours vs 2% DMSO control, read-out: Compound Concentration (ppm) for ≥90% inhibition, Fm): 10 µg/mL (≈ 17.6 µM)
5 | COc1ccc(F)cc1[C@H](Cn1c(=O)n(C(C)(C)C(=O)NC(C)C)c(=O)c2c(C)c(-n3cccn3)sc21)OCC(C)(C)O [Compound I-137] |  |  |  |  |  |  |  |  | IC90 (Diplodia maydis (Dm); ≥90% inhibition, 48 hours vs 2% DMSO control, read-out: Compound Concentration (ppm) sufficient for ≥90% inhibition of growth, Dm): ≥ 2 µg/mL; IC90 ([1]; ≥90% inhibition, 48 hours vs 2% DMSO control, read-out: Compound Concentration (ppm) sufficient for ≥90% inhibition of growth, Fv): ≥ 0.4 µg/mL; IC90 (Rhizoctonia solani (Rs); ≥90% inhibition, mycelial plugs, 48 hours vs 2% DMSO control, read-out: Compound Concentration (ppm) sufficient for ≥90% inhibition of growth, Rs): ≥ 2 µg/mL; IC90 (Botrtyis cinerea (Bc); ≥90% inhibition, 48 hours vs 2% DMSO control, read-out: Compound Concentration (ppm) sufficient for ≥90% inhibition of growth, Bc): 2 µg/mL (≈ 3.25 µM); IC90 ([2]; ≥90% inhibition, 48 hours vs 2% DMSO control, read-out: Compound Concentration (ppm) sufficient for ≥90% inhibition of growth, Pc): ≥ 50 µg/mL; IC90 (Septoria tritici (St); ≥90% inhibition, 48 hours vs 2% DMSO control, read-out: Compound Concentration (ppm) sufficient for ≥90% inhibition of growth, St): ≥ 10 µg/mL; IC90 ([3]; ≥90% inhibition, 48 hours vs 2% DMSO control, read-out: Compound Concentration (ppm) sufficient for ≥90% inhibition of growth, Cg): 2 µg/mL (≈ 3.25 µM); IC90 ([4]; ≥90% inhibition, 48 hours vs 2% DMSO control, read-out: Compound Concentration (ppm) sufficient for ≥90% inhibition of growth, Fm): 0.4 µg/mL (≈ 0.65 µM)
6 | COCCO[C@@H](Cn1c(=O)n(C(C)(C)C(=O)NC(C)C)c(=O)c2c(C)c(-n3nccn3)sc21)c1cc(F)ccc1C [Compound I-248] | ≥ 10 µg/mL | 0.4 µg/mL (≈ 0.682 µM) | 10 µg/mL (≈ 17 µM) | 2 µg/mL (≈ 3.41 µM) | > 50 µg/mL | ≥ 10 µg/mL | 2 µg/mL (≈ 3.41 µM) | 0.4 µg/mL (≈ 0.682 µM) | 
7 | COc1ccc(F)cc1[C@H](Cn1c(=O)n([C@H](C)C(=O)N2CCCC2)c(=O)c2c(C)c(-n3cccn3)sc21)OCCC#N [Compound I-314] | > 50 µg/mL | 10 µg/mL (≈ 16.8 µM) | > 50 µg/mL | > 50 µg/mL | > 50 µg/mL | > 50 µg/mL | 50 µg/mL (≈ 84.1 µM) | 2 µg/mL (≈ 3.36 µM) | 
8 | CCOC(=O)c1sc2c(c1C)c(=O)n(C(C)(C)C(=O)NC(C)C)c(=O)n2C[C@H](OCCC#N)c1cc(F)ccc1OC [Compound I-300] |  |  |  |  |  |  |  |  | Compound Concentration (ppm) sufficient for ≥90% inhibition of Rs (Rhizoctonia solani (Rs); [13]): 0.08 ppm; Compound Concentration (ppm) sufficient for ≥90% inhibition of St (Septoria tritici (St); [14]): >50 ppm
9 | CCOC(=O)c1sc2c(c1C)c(=O)n([C@H](C)C(=O)NC(C)C)c(=O)n2C[C@H](OCCC#N)c1cc(F)ccc1OC [Compound I-330] |  |  |  |  |  |  |  |  | Compound Concentration (ppm) sufficient for ≥90% inhibition of Rs (Rhizoctonia solani (Rs); [13]): 2 ppm; Compound Concentration (ppm) sufficient for ≥90% inhibition of St (Septoria tritici (St); [14]): >50 ppm
